Experiments:
Experiment in all cases: relative viability (nuclei count vs DMSO), 5 days (fraction); higher = more cells survive
[1] = compound: C1CC(C1)(C(=O)O)C(=O)O.[NH2-].[NH2-].[Pt+2] [Carboplatin] + CC(=O)c1c(C)c2cnc(Nc3ccc(N4CCNCC4)cn3)nc2n(C2CCCC2)c1=O [Palbociclib] (partner 0.5 µM)
Method in brief: (§1)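 Lung cancer cell lines, seeded in 1536-well plates, were treated the following day by pin tool with a single drug or with five library-drug doses (not always all listed) in √10 steps on top of a fixed anchor-drug dose. Cells were fixed and nuclei stained in one step after 5 days, and nuclei were counted. Relative viability is the nuclei count for treated wells divided by that for vehicle wells, reported as medians of duplicate plates.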

GSK126 + Linsitinib = compound: CC[C@H](C)N1C=C(C2=C(C=C(C=C21)C3=CN=C(C=C3)N4CCNCC4)C(=O)NCC5=C(C=C(NC5=O)C)C)C [GSK126] + C[C@]1(O)C[C@@H](c2nc(-c3ccc4ccc(-c5ccccc5)nc4c3)c3c(N)nccn32)C1 [Linsitinib] (partner 1 µM)
Method in brief: as §1

Carboplatin + Bortezomib = compound: C1CC(C1)(C(=O)O)C(=O)O.[NH2-].[NH2-].[Pt+2] [Carboplatin] + CC(C)C[C@H](NC(=O)[C@H](Cc1ccccc1)NC(=O)c1cnccn1)B(O)O [Bortezomib] (partner 0.002 µM)
Method in brief: as §1

MLN4924 + OSI-027 = compound: NS(=O)(=O)OC[C@@H]1C[C@@H](n2ccc3c(N[C@H]4CCc5ccccc54)ncnc32)C[C@@H]1O [MLN4924] + COc1cccc2cc(-c3nc([C@H]4CC[C@H](C(=O)O)CC4)n4ncnc(N)c34)[nH]c12 [OSI-027] (partner 0.5 µM)
Method in brief: as §1

Cell Line	relative viability ([1]; first compound 0.08 µM)	relative viability ([1]; first compound 0.253 µM)	relative viability ([1]; first compound 0.8 µM)	relative viability ([1]; first compound 2.53 µM)	relative viability ([1]; first compound 8 µM)	relative viability (GSK126 + Linsitinib; first compound 0.08 µM)	relative viability (GSK126 + Linsitinib; first compound 0.253 µM)	relative viability (GSK126 + Linsitinib; first compound 0.8 µM)	relative viability (GSK126 + Linsitinib; first compound 2.53 µM)	relative viability (GSK126 + Linsitinib; first compound 8 µM)	relative viability (Carboplatin + Bortezomib; first compound 0.08 µM)	relative viability (Carboplatin + Bortezomib; first compound 0.253 µM)	relative viability (Carboplatin + Bortezomib; first compound 0.8 µM)	relative viability (Carboplatin + Bortezomib; first compound 2.53 µM)	relative viability (Carboplatin + Bortezomib; first compound 8 µM)	relative viability (MLN4924 + OSI-027; first compound 0.04 µM)	relative viability (MLN4924 + OSI-027; first compound 0.1265 µM)	relative viability (MLN4924 + OSI-027; first compound 0.4 µM)	relative viability (MLN4924 + OSI-027; first compound 1.265 µM)	relative viability (MLN4924 + OSI-027; first compound 4 µM)
NCI-H1355	0.442	0.446	0.415	0.402	0.395	0.947	0.872	0.793	0.637	0.841	1.35	1.33	1.18	1.23	1.04	0.456	0.388	0.277	0.221	0.231
NCI-H1437	0.302	0.316	0.273	0.272	0.31	1.07	1.07	0.954	0.983	0.938	0.526	0.486	0.598	0.453	0.425	0.845	0.914	0.828	0.305	0.174
NCI-H1651	0.514	0.488	0.507	0.498	0.413	1.07	0.815	0.855	0.972	1.05	0.92	0.967	0.927	0.872	0.761	0.694	0.828	0.866	0.398	0.161
NCI-H1666	0.687	0.685	0.549	0.602	0.6	0.857	1.01	0.898	0.768	1.08	0.842	0.776	0.789	0.774	0.724	0.862	0.892	0.711	0.351	0.325
NCI-H1734	0.367	0.342	0.356	0.362	0.311	0.871	0.896	0.814	0.846	0.946	0.97	0.885	0.921	0.888	0.849	0.498	0.832	0.304	0.124	0.142
NCI-H1755	0.477	0.501	0.515	0.441	0.461	1.01	1.04	1.01	0.967	1.03	0.995	1.02	0.992	1.01	0.887	0.681	0.518	0.4	0.207	0.208
NCI-H1792	0.674	0.607	0.639	0.616	0.569	0.561	0.639	0.51	0.571	0.498	1.06	0.933	0.885	0.844	0.862	0.663	0.765	0.839	0.593	0.54
NCI-H1915	0.489	0.509	0.523	0.448	0.346	1.2	1.08	1.14	1.17	1.16	0.984	1.01	0.954	0.845	0.487	0.567	0.544	0.452	0.213	0.205
NCI-H1975	0.572	0.625	0.56	0.601	0.518	1.02	1.01	0.983	0.96	0.987	0.345	0.462	0.462	0.419	0.307	0.704	0.934	1	0.618	0.261
NCI-H1993	0.596	0.781	0.634	0.627	0.534	0.827	0.713	0.728	0.752	0.734	1.14	1.16	0.915	0.928	0.908	0.549	0.523	0.532	0.488	0.52
NCI-H2009	0.203	0.202	0.182	0.207	0.183	1.3	1.18	1.27	1.18	1.2	1.12	0.938	0.945	0.918	0.671	0.249	0.149	0.187	0.0664	0.0797
NCI-H2023	0.433	0.384	0.318	0.326	0.121	0.778	0.679	0.644	0.757	0.755	1.06	1.18	1.02	0.717	0.204	0.383	0.361	0.163	0.0645	0.0536
NCI-H2085	0.473	0.486	0.462	0.456	0.452	0.903	0.774	1.02	0.89	1.02	1.24	1.2	1.03	1	0.82	0.852	0.746	0.635	0.512	0.307
NCI-H2087	0.259	0.23	0.208	0.212	0.194	0.979	0.942	0.931	0.885	0.967	0.945	0.699	0.781	0.833	0.521	0.41	0.498	0.516	0.14	0.104
NCI-H2126	0.333	0.354	0.336	0.363	0.353	0.759	0.732	0.725	0.721	0.713	1.14	1.14	1.15	1.15	1.04	0.665	0.75	0.59	0.407	0.346

Reference: the supplement of paper PMC10307832
